No end group written: not given here. *: point of attachment. For = O=C*
Legend:
human neutrophils = test: Neutrophil chemotaxis in a modified Boyden chamber assay; type: cell-based; details: synthetic peptides, fMLP as comparator
Experimental: Serum and plasma samples were collected from six female healthy volunteers aged 20-29, and ten ACS patients. Clinical diagnosis of the ten ACS patients indicated one unstable angina patient and 9 patients with acute myocardial infarction (AMI). The unstable angina patient arrived to the Emergency Department 30.5 hours after symptoms onset. Seven of the nine AMI patients presented to the Emergency Department within 1.5-3.5 hours after onset of chest pain. The other two AMI patients arrived 10 hours and 24 hours after symptoms onset. Blood samples were collected upon arrival of the patient, centrifuged and stored at −70° C. for up to 21 days. Serum and plasma samples were tested for neutrophil chemotactic activity using a modified Boyden chamber technique and human neutrophils as indicator cells (see, for example, Elgebaly, S. A., et al. J. Mol. Cell. Cardiol. 21:585-593, 1989; and Elgebaly, S. A., et al. Am. J. Pathol. 137:1233-1241, 1990, each of which is incorporated by reference in its entirety).
Samples were also fractionated using high performance liquid chromatography (HPLC) and a size exclusion column (1-300 kDa). The 5 kDa and lower molecular weight fractions were collected and assayed for neutrophil chemotactic activity. The standard synthetic chemoattractant fMet-Leu-Phe (f-MLP) was used as the positive control for 100% chemotactic response. Hank's Balanced Salt Solution (HBSS) was the negative control for random migration. Neutrophil migration was reported as chemotactic index of counted cells trapped within 10-micron membrane layer. The average of three readings were calculated for each filter. [formula]
(§1) A synthetic peptide having the sequence: N-formyl-[…] Synthetic peptides of sequence: MIINHNLAAINSHR (i.e., unmodified peptide 3) and of sequence: […]

neutrophils = test: Chemotactic activity retained after overnight refrigeration; type: cell-based; details: unlike fMLP
Excerpt: as §1

MIINHNLAAINSHR [sequence 3]
chemotaxis of neutrophils (human neutrophils): promoted chemotaxis to a lesser degree

MIINHNLAAINSHRSPGADGNGGEAMPGGG [3+9]
chemotaxis of neutrophils (human neutrophils): promoted chemotaxis to a lesser degree | chemotactic activity when refrigerated overnight (neutrophils): retained chemotactic activity

N-formyl-MENHK [N-formyl-7]
chemotaxis of neutrophils (human neutrophils): promote chemotaxis to a lesser degree than fMLP

N-formyl-MIINHNLAAINSHR (For-MIINHNLAAINSHR) [N-formyl-3]
chemotaxis of neutrophils (human neutrophils): promoted strong chemotaxis | chemotactic activity when refrigerated overnight (neutrophils): retained chemotactic activity

N-formyl-MIINHNLAAINSHRSPGADGNGGEAMPGGGK (For-MIINHNLAAINSHRSPGADGNGGEAMPGGGK) [N-formyl-3+9+K]
chemotaxis of neutrophils (human neutrophils): promoted strong chemotaxis | chemotactic activity when refrigerated overnight (neutrophils): retained chemotactic activity

N-formyl-MNTRAMNDASGR (For-MNTRAMNDASGR) [N-formyl-5]
chemotaxis of neutrophils (human neutrophils): promote chemotaxis to a lesser degree than fMLP

SPGADGNGGEAMPGGG [sequence 9]
chemotaxis of neutrophils (human neutrophils): no chemotactic activity
